Measured values published in PMC3230598, “Structural Studies of β-Carbonic Anhydrase from the Green Alga Coccomyxa: Inhibitor Complexes with Anions and Acetazolamide” (PLoS ONE, 2011).

B1: β-carbonic anhydrase from Coccomyxa sp. (enzyme, UniProt Q96554 1-227, looked up)
chain: MSAKDTADLSPLLEANRKWADECAAKDSTYFSKVAGSQAPEYLYIGCADSRVSPAQLFNMAPGEVFVQRNVGNLVSNKDLNCMSCLEYTVDHLKIKHILVCGHYNCGACKAGLVWHPKTAGVTNLWISDVREVRDKNAAKLHGLSADDAWDKMVELNVEAQVFNVCASPIVQAAWARGQPLSVHGIVYTPGTGLVKELIKPITGMEDAGALLRADLKQHCFFSESLA
notes: β-carbonic anhydrase of Coccomyxa sp., 227 amino acids, GenBank AAC33484.1; Met-1 to Asp-5 not seen in the electron density, models hold residues 6-227; One zinc ion per monomer; crystallised with acetazolamide, phosphate, thiocyanate, azide or iodide; also called Co-CA; Coccomyxa β-CA; source: E. coli, over-expressed, purified (amylose-resin column, Q-Sepharose Fast Flow)

Experiments:
Co-CA (Coccomyxa β-CA) = target: T1, Co-CA (Coccomyxa β-CA) (Coccomyxa sp. PA, UniProt Q96554); experiment: X-ray crystal structure of co-crystal, […] Å; format: binding; details: 15 mM NaSCN, 1.8 M NaKPO4 pH 7.2; N bound to active-site zinc (2.0 Å); also at dimer interface
T1 construct: zinc enzyme, homotetramer (dimer of dimers); residues 6-227 modelled

[1] = target: the molecule itself; experiment: crystal structure; Co-CA at ~35 mg/ml in 10 mM Tris-HCl pH 7.4, hanging drop at 18°C, 1.6-2.3 M Na,KPO4 pH 7.2, with acetazolamide, phosphate, thiocyanate, azide or iodide; space group P43212; one dimer in the asymmetric unit, tetramer by a crystallographic 2-fold

| Molecule | X-ray crystal structure of co-crystal, 2.5 Å (Co-CA (Coccomyxa β-CA)) | stoichiometry N [1] |
| --- | --- | --- |
| N#CS [SCN, thiocyanate] | Azide and thiocyanate ions in the active site of Co-CA were clearly defined | – |
| B1 | – | 4 |
